Where a name gives a salt, the structure may show the parent alone.
Biological target: T1, TYK2 kinase domain (Homo sapiens, UniProt P29597)
T1 construct: The activity of the isolated JAK1, JAK2 or TYK2 kinase domain was measured
T1 sequence (P29597 897-1176 limits assumed): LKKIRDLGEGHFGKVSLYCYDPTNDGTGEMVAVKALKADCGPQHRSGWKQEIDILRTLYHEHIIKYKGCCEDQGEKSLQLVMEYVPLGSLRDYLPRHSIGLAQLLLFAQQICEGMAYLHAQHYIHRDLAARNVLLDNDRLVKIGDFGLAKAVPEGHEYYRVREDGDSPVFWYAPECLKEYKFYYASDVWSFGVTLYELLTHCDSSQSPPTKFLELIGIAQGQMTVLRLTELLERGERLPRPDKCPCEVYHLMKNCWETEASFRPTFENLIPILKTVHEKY
Assay: JAK1, JAK2 and TYK2 Inhibition Assay Protocol (Example A): TYK2 kinase domain, Caliper LabChip peptide phosphorylation
Assay type: biochemical
Settings: isolated TYK2 kinase domain, 1 nM enzyme, 25 uM ATP, Morrison tight binding model
Procedure: The activity of the isolated JAK1, JAK2 or TYK2 kinase domain was measured by monitoring phosphorylation of a peptide derived from JAK3 (Val-Ala-Leu-Val-Asp-Gly-Tyr-Phe-Arg-Leu-Thr-Thr) fluorescently labeled on the N-terminus with 5-carboxyfluorescein using the Caliper LabChip technology (Caliper Life Sciences, Hopkinton, Mass.). To determine the inhibition constants (Ki) of Examples 1-165, compounds were diluted serially in DMSO and added to 50 μL kinase reactions containing 1.5 nM JAK1, 0.2 nM purified JAK2 or 1 nM purified TYK2 enzyme, 100 mM Hepes pH7.2, 0.015% Brij-35, 1.5 uM peptide substrate, 25 uM ATP, 10 mM MgCl2, 4 mM DTT at a final DMSO concentration of 2%. Reactions were incubated at 22° C. in 384-well polypropylene microtiter plates for 30 minutes and then stopped by addition of 25 μL of an EDTA containing solution (100 mM Hepes pH 7.2, 0.015% Brij-35, 150 mM EDTA), resulting in a final EDTA concentration of 50 mM. After termination of the kinase reaction, the proportion of phosphorylated product was determined as a fraction of total peptide substrate using the Caliper LabChip 3000 according to the manufacturer's specifications. Ki values were then determined using the Morrison tight binding model. Morrison, J. F., Biochim. Biophys. Acta. 185:269-296 (1969); William, J. W. and Morrison, J. F., Meth. Enzymol., 63:437-467 (1979).

Compound | Ki
COC(=O)Nc1nccc2nn(-c3c(Cl)cccc3Cl)cc12 [Example 6, [2-(2,6-Dichlorophenyl)-2H-pyrazolo[4,3-c]pyridine-4-yl]carbamic acid methyl ester] | 5.2 nM
O=C(Nc1nccc2nn(-c3c(Cl)cccc3Cl)cc12)C1CC1 [Example 1, N-(2-(2,6-Dichlorophenyl)-2H-pyrazolo[4,3-c]pyridin-4-yl)cyclopropanecarboxamide] | 1.3 nM
N#Cc1cnc(Nc2cc(N)ncn2)c2cn(-c3c(Cl)cccc3Cl)nc12 [Example 40, 4-(6-Aminopyrimidin-4-ylamino)-2-(2,6-dichlorophenyl)-2H-pyrazolo[4,3-c]pyridine-7-carbonitrile] | 1.1 nM
N#Cc1cc(Cl)c(-n2cc3c(Nc4cc(N)ncn4)ncc(F)c3n2)c(Cl)c1 [Example 34, 4-[4-(6-Amino-pyrimidin-4-ylamino)-7-fluoro-pyrazolo[4,3-c]pyridin-2-yl]-3,5-dichlorobenzonitrile.HCl] | 0.4 nM
Cc1cc(Nc2nccc3nn(-c4c(Cl)cccc4Cl)cc23)nc(C)n1 [Example 2, [2-(2,6-Dichlorophenyl)-2H-pyrazolo[4,3-c]pyridine-4-yl]-(2,6-dimethylpyrimidin-4-yl)amine] | 2 nM
CNC(=O)Nc1nccc2nn(-c3c(Cl)cccc3Cl)cc12 [Example 7, 1-[2-(2,6-Dichlorophenyl)-2H-pyrazolo[4,3-c]pyridine-4-yl]-3-methylurea] | 3.3 nM
O=C(Nc1nccc2nn(-c3c(F)cccc3Cl)cc12)C1CC1 [Example 15, N-(2-(2-chloro-6-fluorophenyl)-2H-pyrazolo[4,3-c]pyridin-4-yl)cyclopropanecarboxamide] | 1.6 nM
N#Cc1ccc(Nc2nccc3nn(-c4c(Cl)cccc4Cl)cc23)nc1 [Example 3, 6-[2-(2,6-Dichlorophenyl)-2H-pyrazolo[4,3-c]pyridin-4-ylamino]nicotinonitrile] | 3 nM
Cc1cc(Nc2ncc(Cl)c3nn(-c4c(Cl)cc(C#N)cc4Cl)cc23)ncn1 [Example 30, 3,5-Dichloro-4-[7-chloro-4-(6-methylpyrimidin-4-ylamino)pyrazolo[4,3-c]pyridin-2-yl]benzonitrile] | 5.6 nM
OCc1cc(Nc2ncc(Br)c3nn(-c4c(Cl)cccc4Cl)cc23)ncn1 [Example 37, {6-[7-Bromo-2-(2,6-dichloro-phenyl)-2H-pyrazolo[4,3-c]pyridin-4-ylamino]-pyrimidin-4-yl}-methanol] | 0.4 nM

Now from value to molecule:

Ki | Compound
14.9 nM | CS(=O)(=O)c1cc(Cl)c(-n2cc3c(NC(=O)C4CC4)nccc3n2)c(Cl)c1 [Example 67, N-(2-(2,6-dichloro-4-methane-sulphonyl-phenyl)-2H-pyrazolo[4,3-c]pyridine-4-yl)cyclopropane-carboxamide]
2 nM | N#Cc1cc(Cl)c(-n2cc3c(NC(=O)C4CC4)nccc3n2)c(Cl)c1 [Example 69, N-(2-(2,6-dichloro-4-cyanophenyl)-2H-pyrazolo[4,3-c]pyridin-4-yl)cyclopropane-carboxamide]
0.8 nM | CC(O)c1cc(Nc2ncc(F)c3nn(-c4c(Cl)cccc4C#N)cc23)ncn1 (stereo not shown) [Example 96, 3-Chloro-2-{7-fluoro-4-[6-(1-hydroxyethyl)-pyrimidin-4-ylamino]-pyrazolo[4,3-c]pyridin-2-yl}-benzonitrile]
105 nM | N#Cc1cc(N)cc(Cl)c1-n1cc2c(Nc3cc(N)ncn3)ncc(F)c2n1 [Example 101, 5-Amino-2-[4-(6-aminopyrimidin-4-ylamino)-7-fluoropyrazolo[4,3-c]pyridin-2-yl]-3-chlorobenzonitrile formate salt]
0.1 nM | N#Cc1cccc(Cl)c1-n1cc2c(Nc3cc(N)ncn3)ncc(Cl)c2n1 [Example 151, 2-(4-(6-aminopyrimidin-4-ylamino)-7-chloro-2H-pyrazolo[4,3-c]pyridin-2-yl)-3-chlorobenzonitrile]
1.8 nM | Cc1cc(Nc2cc(Cl)c(-n3cc4c(Nc5cc(C)ncn5)nccc4n3)c(C#N)c2)ncn1 [Example 158, 3-chloro-5-(6-methylpyrimidin-4-ylamino)-2-(4-(6-methylpyrimidin-4-ylamino)-2H-pyrazolo[4,3-c]pyridin-2-yl)benzonitrile]
1 nM | Cc1cc(Nc2nccc3nn(-c4c(Cl)cccc4Cl)cc23)ncc1C#N [Example 53, 6-[2-(2,6-Dichlorophenyl)-2H-pyrazolo[4,3-c]pyridin-4-ylamino]-4-methyl-nicotinonitrile]
1.9 nM | OCCN1CCN(c2cc(Nc3nccc4nn(-c5c(Cl)cccc5Cl)cc34)ncn2)CC1 [Example 49, 2-(4-(6-((2-(2,6-dichlorophenyl)-2H-pyrazolo[4,3-c]pyridin-4-yl)amino)-pyrimidin-4-yl)piperazin-1-yl)ethan-1-ol]
2.2 nM | Nc1cc(Nc2nccc3nn(-c4c(F)ccc(F)c4Cl)cc23)ncn1 [Example 81, N4-(2-(2-chloro-3,6-difluorophenyl)-2H-pyrazolo[4,3-c]pyridin-4-yl)pyrimidine-4,6-diamine]
